In patent US10717749B2, “Macrocyclic sulfondiimine compounds” (BAYER PHARMA AKTIENGESELLSCHAFT, priority 2015, dated 2020):

How the values were obtained:
[1] = tested on: A2780; assay: Proliferation assay, Cell Titer-Glo; type: cell-based; conditions: Homo sapiens; A2780, 72-hour exposure; read-out: Inhibition of A2780 cell proliferation IC50
Method: (§1) MOLM-13 human acute myeloid leukemia cells (DSMZ ACC 554) and A2780, human ovarian carcinoma cells (ECACC #93112519) were seeded at a density of 5,000 cells/well (MOLM-13), or 3,000 cells/well (A2780) in a 96-well multititer plate in 150 μL of growth medium supplemented 10% fetal calf serum. After 24 hours, cell viability of one plate (zero-point plate) was determined with the Cell Titer-Glo Luminescent Cell Viability Assay (Promega), whiletest compound was added to the wells of the other plates employing HP Dispenser (final concentrations in the range of 0.0001-10 μM and DMSO controls). Cell viability was assessed after 72-hour exposure with the Cell Titer-Glo Luminescent Cell Viability Assay (Promega). IC50 values (inhibitory concentration at 50% of maximal effect) were determined by means of a 4 parameter fit on measurement data which were normalized to vehicle (DMSO) treated cells (=100%) and measurement readings taken immediately before compound exposure (=0%).

[2] = tested on: MOLM-13; assay: Proliferation assay, Cell Titer-Glo; type: cell-based; conditions: Homo sapiens; MOLM-13, 72-hour exposure; read-out: Inhibition of MOLM-13 cell proliferation IC50
Method: as §1

[3] = molecular target: T1, CDK2/CycE (Homo sapiens, UniProt P24941); assay: CDK2/CycE kinase assay (Method 2a, TR-FRET, 10 μM ATP); type: biochemical
T1 construct: GST; purchased ProQinase GmbH (Freiburg, Germany); host or cells: insect cells (Sf9)
Description: 2a. CDK2/CycE Kinase Assay:
CDK2/CycE-inhibitory activity of compounds of the present invention was quantified employing the CDK2/CycE TR-FRET assay as described in the following paragraphs:
(§2) Recombinant fusion proteins of GST and human CDK2 and of GST and human CycE, expressed in insect cells (Sf9) and purified by Glutathion-Sepharose affinity chromatography, were purchased from ProQinase GmbH (Freiburg, Germany). As substrate for the kinase reaction biotinylated peptide biotin-Ttds-YISPLKSPYKISEG (C-terminus in amid form) was used which can be purchased e.g. from the company JERINI Peptide Technologies (Berlin, Germany).
(§3) For the assay 50 nl of a 100 fold concentrated solution of the test compound in DMSO was pipetted into a black low volume 384 well microtiter plate (Greiner Bio-One, Frickenhausen, Germany), 2 μl of a solution of CDK2/CycE in aqueous assay buffer [50 mM Tris/HCl pH 8.0, 10 mM MgCl2, 1.0 mM dithiothreitol, 0.1 mM sodium ortho-vanadate, 0.01% (v/v) Nonidet-P40 (Sigma)] were added and the mixture was incubated for 15 min at 22° C. to allow pre-binding of the test compounds to the enzyme before the start of the kinase reaction. […] The concentration of CDK2/CycE was adjusted depending of the activity of the enzyme lot and was chosen appropriate to have the assay in the linear range, typical concentrations were in the range of 130 ng/mL. The reaction was stopped by the addition of 5 μl of a solution of TR-FRET detection reagents (0.2 μM streptavidine-XL665 [Cisbio Bioassays, Codolet, France] and 1 nM anti-RB(pSer807/pSer811)-antibody from BD Pharmingen [#558389] and 1.2 nM LANCE EU-W1024 labeled anti-mouse IgG antibody [Perkin-Elmer, product no. AD0077]) in an aqueous EDTA-solution (100 mM EDTA, 0.2% (w/v) bovine serum albumin in 100 mM HEPES pH 7.5).
(§4) The resulting mixture was incubated 1 h at 22° C. to allow the formation of complex between the phosphorylated biotinylated peptide and the detection reagents. Subsequently the amount of phosphorylated substrate was evaluated by measurement of the resonance energy transfer from the Eu-chelate to the streptavidine-XL. Therefore, the fluorescence emissions at 620 nm and 665 nm after excitation at 350 nm was measured in a TR-FRET reader, e.g. a Rubystar (BMG Labtechnologies, Offenburg, Germany) or a Viewlux (Perkin-Elmer). The ratio of the emissions at 665 nm and at […] was taken as the measure for the amount of phosphorylated substrate. The data were normalised (enzyme reaction without inhibitor=0% inhibition, all other assay components but no enzyme=100% inhibition).

[4] = molecular target: T1, CDK2/CycE; assay: CDK2/CycE high ATP kinase assay (Method 2b, TR-FRET, 2 mM ATP); type: biochemical
Method: 2b. CDK2/CycE High ATP Kinase Assay:
CDK2/CycE-inhibitory activity of compounds of the present invention at 2 mM adenosine-tri-phosphate (ATP) was quantified employing the CDK2/CycE TR-FRET (TR-FRET=Time Resolved Fluorescence Resonance Energy Transfer) assay as described in the following paragraphs.
as §2, with “were purchase” for “were purchased”, “JERINI peptide technologies” for “JERINI Peptide Technologies”
as §3, with “15 ng/ml.” for “130 ng/mL.”, “AD0077, as an alternative a Terbium-cryptate-labeled anti-mouse IgG antibody from Cisbio Bioassays can be used])” for “AD0077])”
as §4, with “350 nm wer measured in” for “350 nm was measured in”

| SMILES | IC50 [1] [nM] | IC50 [2] [nM] | IC50 [3] [nM] | IC50 [4] [nM] |
| --- | --- | --- | --- | --- |
| CS(=N)(Cc1cc2cc(c1)OCCCCOc1cc(F)ccc1-c1nc(ncc1F)N2)=NC1CC1 (racemic) [Example 9, (rac)-9-[(N-cyclopropyl-S-methylsulfonodiimidoyl)methyl]-16,20-difluoro-2,3,4,5-tetrahydro-12H-13,17-(azeno)-11,7-(metheno)-1,6,12,14-benzodioxadiazacyclononadecine] | 31.3 | 22.2 | 143 | 997 |
| CS(=N)(=N)Cc1cc2cc(c1)OCCCCOc1cc(F)ccc1-c1nc(ncc1F)N2 [Example 5, 16,20-difluoro-9-[(S-methylsulfonodiimidoyl)methyl]-2,3,4,5-tetrahydro-12H-13,17-(azeno)-11,7-(metheno)-1,6,12,14-benzodioxadiazacyclononadecine] | 11.7 | 8.2 | 92.6 | 1240 |
| CS(=N)(=N)Cc1cc2cc(c1)OCCCCOc1c(ccc(F)c1F)-c1nc(ncc1F)N2 [Example 6, 16,20,21-trifluoro-9-[(S-methylsulfonodiimidoyl)methyl]-2,3,4,5-tetrahydro-12H-13,17-(azeno)-11,7-(metheno)-1,6,12,14-benzodioxadiazacyclononadecine] | 123 | 113 | 1430 | 12500 |
| CS(=N)(=N)Cc1cc2cc(c1)OCCCCOc1c(F)cccc1-c1nc(ncc1F)N2 [Example 7, 16,21-difluoro-9-[(S-methylsulfonodiimidoyl)methyl]-2,3,4,5-tetrahydro-12H-13,17-(azeno)-11,7-(metheno)-1,6,12,14-benzodioxadiazacyclononadecine] | 125 | 126 | 1170 | – |

Next, values leading:

| IC50 [1] [nM] | IC50 [2] [nM] | IC50 [3] [nM] | IC50 [4] [nM] | SMILES |
| --- | --- | --- | --- | --- |
| 5.4 | 5.3 | 22.5 | 246 | CS(=N)(Cc1cc2nc(c1)OCCCOc1cc(F)ccc1-c1cc(ncc1F)N2)=NCCCO (racemic) [Example 2, (rac)-3-(2-{[15,19-difluoro-3,4-dihydro-2H,11H-10,6-(azeno)-12,16-(metheno)-1,5,11,13-benzodioxadiazacyclooctadecin-8-yl]methyl}-2-methyl-2λ^6-diazathia-1,2-dien-1-yl)propan-1-ol] |
| 2.6 | 2 | 6 | 62.4 | CS(=N)(Cc1cc2nc(c1)OCCCOc1cc(F)ccc1-c1cc(ncc1F)N2)=NC#N (racemic) [Example 3, (rac)-[{[15,19-difluoro-3,4-dihydro-2H,11H-10,6-(azeno)-12,16-(metheno)-1,5,11,13-benzodioxadiazacyclooctadecin-8-yl]methyl}(imino)methyl-λ^6-sulfanylidene]cyanamide] |
| 11.7 | 4.7 | 37.3 | 620 | CN=S(C)(=N)Cc1cc2nc(c1)OCCCOc1cc(F)ccc1-c1cc(ncc1F)N2 (racemic) [Example 4, (rac)-8-[(N,S-dimethylsulfonodiimidoyl)methyl]-15,19-difluoro-3,4-dihydro-2H,11H-10,6-(azeno)-12,16-(metheno)-1,5,11,13-benzodioxadiazacyclooctadecine] |
| 29 | – | – | 1650 | CN=S(C)(=N)Cc1cc2cc(c1)OCCCCOc1cc(F)ccc1-c1nc(ncc1F)N2 (racemic) [Example 10, (rac)-9-[(N,S-dimethylsulfonodiimidoyl)methyl]-16,20-difluoro-2,3,4,5-tetrahydro-12H-13,17-(azeno)-11,7-(metheno)-1,6,12,14-benzodioxadiazacyclononadecine] |
| 4 | 2.8 | 16.4 | 140 | CS(=N)(=N)Cc1cc2nc(c1)OCCCOc1cc(F)ccc1-c1cc(ncc1F)N2 [Example 1, 15,19-difluoro-8-[(S-methylsulfonodiimidoyl)methyl]-3,4-dihydro-2H,11H-10,6-(azeno)-12,16-(metheno)-1,5,11,13-benzodioxadiazacyclooctadecine] |
| 18.1 | 4.2 | 71.2 | 378 | CS(=N)(=N)Cc1cc2nc(c1C#N)OCCCOc1cc(F)ccc1-c1cc(ncc1F)N2 [Example 8, 15,19-difluoro-8-[(S-methylsulfonodiimidoyl)methyl]-3,4-dihydro-2H,11H-10,6-(azeno)-12,16-(metheno)-1,5,11,13-benzodioxadiazacyclooctadecine-7-carbonitrile] |
